According to patent publication US20250367167A1, “COMPOSITION FOR MITOCHONDRIAL MODIFICATION COMPRISING A COMBINATION OF TWO OR MORE NATURAL PIGMENTS” (University of Seoul Industry Cooperation Foundation, priority 2024, published 2025):
Several values for one entry are separate records, joined by “and”; a condition that tells them apart may be missing. Equal values may be shown once.

Columns and labels:
[1] = Absorption spectrum analysis of natural pigments (UV/Vis); assay type: physicochemical; settings: 100 μM β-carotene, 60 μM anthocyanins, 40 μM chlorophyll a
Procedure: In order to analyze the absorbance spectra of three natural pigments (i.e., β-carotene, delphinidin chloride (anthocyanin), and chlorophyll a (Sigma-Aldrich)), the absorbance analysis was performed using a UV/Vis NANO spectrophotometer (Nabi).
In the drawing, “Experimental result” corresponds to the actually-measured absorption spectrum, and “Calculated result” represents the result of added-up values of the absorption spectrum of single natural pigments.
The results of the absorption spectrum analysis over time by mixing 100 µM B-carotene, 60 μM anthocyanin, and 40 μM chlorophyll a in various combinations are shown in FIG. 2E to 2H.

[2] = test system: mitochondrial electron transport chain protein complexes; assay: ATP production after treatment with inhibitors of electron transport chain protein complexes; assay type: biochemical, human; settings: 2 μM inhibitor, 1 hour; C@mt; light 640-680 nm, 5 mW, 80 minutes
Procedure: It is generally known that ATP is produced through protein complexes involved in the electron transport process during the oxidative phosphorylation process of mitochondria. Accordingly, an analysis was performed using the ATP Assay Kit (Abcam) to evaluate the amount of ATP production when treating with inhibitors for each protein complex.
A total of 50 μL of mitochondria including each combination of natural pigments (C@mt, BC@mt, AC@mt, or BAC@mt) and 2 μM of inhibitors (Rotenone, Malonate, Antimycin A or Cyanide) for each protein complex were added to the E-tube and incubated at room temperature for 1 hour. Then, the supernatant was removed using a centrifuge (12,000 g, 15 minutes) and resuspended in 50 μL of PBS. 50 μL of mitochondria including a combination of natural pigments treated with inhibitors were added to each 96-well black plate, and irradiated with light having a wavelength of 640-680 nm at an intensity of 5 mW for 80 minutes. […]
Then, the amount of ATP production was measured by measuring the fluorescence intensity (Ex/Em=535/587 nm) using a microplate reader. The amount of ATP production was calculated by subtracting the fluorescence value measured upon irradiation with light for 0 minutes from the fluorescence value measured upon irradiation with light for 80 minutes, and the results are shown in FIGS. 8A and 8B.

Row | wavelength of high absorbance (absorption spectrum) [1] | SMILES | ATP production after inhibitor treatment [2]
1 | 555 nm | Oc1cc(O)c2cc(O)c(-c3cc(O)c(O)c(O)c3)[o+]c2c1 [anthocyanins, delphinidin chloride] | –
2 | – | O=C(O)CC(=O)O [malonate, Malonate] | rapid decrease
3 | 475 nm | CC1=C(/C=C/C(C)=C/C=C/C(C)=C/C=C/C=C(C)/C=C/C=C(C)/C=C/C2=C(C)CCCC2(C)C)C(C)(C)CCC1 [β-carotene] | –

Row | SMILES | wavelength of high absorbance (absorption spectrum) [1] | ATP production after inhibitor treatment [2]
4 | C=Cc1c(C)c2cc3nc(c4c5[n-]c(cc6nc(cc1[n-]2)C(C)=C6CC)c(C)c5C(=O)[C@@H]4C(=O)OC)[C@@H](CCC(=O)OC/C=C(\C)CCC[C@H](C)CCC[C@H](C)CCCC(C)C)[C@@H]3C.[Mg+2] [chlorophyll a] | 415 nm and 662 nm | –
